The assay addresses T1, Signal transducer and activator of transcription 5A (Homo sapiens, UniProt P42229).
T1 sequence (P42229 whole entry): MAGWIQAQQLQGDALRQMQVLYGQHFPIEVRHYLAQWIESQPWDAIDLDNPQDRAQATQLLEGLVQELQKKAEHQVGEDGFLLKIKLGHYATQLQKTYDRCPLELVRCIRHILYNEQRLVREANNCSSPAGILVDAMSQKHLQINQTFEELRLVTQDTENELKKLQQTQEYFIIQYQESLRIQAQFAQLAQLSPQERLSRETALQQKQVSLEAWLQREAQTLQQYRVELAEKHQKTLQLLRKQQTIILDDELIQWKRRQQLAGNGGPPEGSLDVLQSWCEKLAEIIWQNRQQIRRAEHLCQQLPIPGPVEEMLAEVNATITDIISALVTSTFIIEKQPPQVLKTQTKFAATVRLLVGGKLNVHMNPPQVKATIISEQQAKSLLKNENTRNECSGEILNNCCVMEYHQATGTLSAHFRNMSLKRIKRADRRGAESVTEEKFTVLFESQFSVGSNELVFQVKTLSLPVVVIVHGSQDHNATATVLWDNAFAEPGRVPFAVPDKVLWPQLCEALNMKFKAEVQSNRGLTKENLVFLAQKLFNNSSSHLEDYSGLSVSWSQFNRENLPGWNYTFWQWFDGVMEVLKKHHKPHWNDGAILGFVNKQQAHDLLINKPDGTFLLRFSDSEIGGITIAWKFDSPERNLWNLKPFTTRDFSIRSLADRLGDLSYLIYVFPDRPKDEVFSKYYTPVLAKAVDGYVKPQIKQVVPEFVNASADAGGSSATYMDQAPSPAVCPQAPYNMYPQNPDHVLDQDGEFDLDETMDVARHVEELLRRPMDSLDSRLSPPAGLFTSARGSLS
The experiment in a line: Inhibition of STAT5 phosphorylation in IL2-stimulated healthy human T cells by Western blotting. A general note: Immunoblotting shows a protein as a band on a membrane.

For orientation: IC50 means the midpoint of a concentration-inhibition curve.

The compound `O=C1NCc2c1c1c3ccccc3n3c1c1c2c2ccccc2n1C[C@@H](O)[C@@H](O)C3` [12,13-(2,3-Cis-dihyroxy-1,4-butyl)-6,7,12,13-tetrahydro-5-oxo-5H-indolo[2,3-a]pyrrolo[3,4-c]carbazole] showed an IC50 of 689 nM.

(Values after BindingDB's records for doi:10.1016/j.bmcl.2009.04.039 (Johnson & Johnson Pharmaceutical Research & Development, 2009).)
